According to publication doi:10.1101/2024.12.03.626577v1 (biorxiv, 2024):
Where two headings read alike, the source gives them in different places.

Tests used:
[1] = biological target: T1, TRIM21^PRY-SPRY (287-465aa) (Homo sapiens, UniProt P19474); experiment: SPR; type: binding
[2] = system: PANC-1; experiment: cells; settings: Homo sapiens, PANC-1, 72 h, read-out: PANC-1 IC50 (µM)
[3] = biological target: T1, TRIM21^PRY-SPRY (287-465aa); experiment: SPR; type: binding; remark: listed apart in the source

T1 sequence (P19474 287-465): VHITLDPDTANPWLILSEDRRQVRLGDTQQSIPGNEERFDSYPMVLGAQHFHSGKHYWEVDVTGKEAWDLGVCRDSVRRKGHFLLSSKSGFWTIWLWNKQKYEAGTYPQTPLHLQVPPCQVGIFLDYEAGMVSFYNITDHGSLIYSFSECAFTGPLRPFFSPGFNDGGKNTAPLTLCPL

| Kd [1] [nM] | IC50 [2] [µM] | Kd [3] [nM] | SMILES |
| --- | --- | --- | --- |
| 123 |  |  | CSc1ccccc1-c1ccc(C(=O)N(C)CC2CCCCC2)c(S(C)(=O)=O)c1 [1a, Compound 1a] |
| 29 |  |  | CSc1ccccc1-c1ccc(C(=O)N(C)CC2CCOCC2)c(S(C)(=O)=O)c1 [1b, Compound 1b] |
| 17 |  |  | CSc1ccccc1-c1ccc(C(=O)N(C)Cc2cc[nH]c2)c(S(C)(=O)=O)c1 [1c, Compound 1c] |
| 171 |  |  | CSc1ccccc1-c1ccc(C(=O)N(C)Cc2ccon2)c(S(C)(=O)=O)c1 [1d, Compound 1d] |
| 581 |  |  | CCc1ccccc1CN(C)C(=O)c1ccc(-c2ccccc2SC)cc1S(C)(=O)=O [1e, Compound 1e] |
| 350 |  |  | CSc1ccccc1-c1ccc(C(=O)N(C)CC2CCOC2)c(S(C)(=O)=O)c1 (centres unmarked) [1f, Compound 1f] |
| 11 |  |  | CSc1ccccc1-c1ccc(C(=O)N(C)Cc2cc[nH]c(=O)c2)c(S(C)(=O)=O)c1 [1g, Compound 1g] |
| 234 | 0.329 |  | CSc1ccccc1-c1ccc(C(=O)N(C)CC2CCCCC2(F)F)c(S(C)(=O)=O)c1 (centres unmarked) [2a, Compound 2a] |
| 2150 | 5.14 |  | CN(CC1CCCCC1)C(=O)c1ccc(-c2ccccc2F)cc1S(C)(=O)=O [2b, Compound 2b] |
| 610 |  |  | Cc1ccccc1-c1ccc(C(=O)N(C)CC2CCCCC2)c(S(C)(=O)=O)c1 [2c, Compound 2c] |
|  | 1.62 |  | Cc1ccccc1-c1ccc(C(=O)N(C)CC2CCCCC2)c(S(C)(=O)=O)c1 [2c] |
| 1570 |  |  | COc1cnccc1-c1ccc(C(=O)N(C)CC2CCCCC2)c(S(C)(=O)=O)c1 [2d, Compound 2d] |
|  | 0.791 |  | COc1cnccc1-c1ccc(C(=O)N(C)CC2CCCCC2)c(S(C)(=O)=O)c1 [2d] |
|  | 0.094 |  | CSc1cc(F)ccc1-c1ccc(C(=O)N(C)CC2CCCCC2)c(S(C)(=O)=O)c1 [2e] |
|  |  | 193 | CSc1ccccc1-c1ccc(C(=O)N(C)CC2(F)CCCCC2)c(S(C)(=O)=O)c1 [compound 1, Compound 1] |
